Data as given in US20130296425A1, “PROPHYLACTIC OR THERAPEUTIC AGENT FOR A PERIPHERAL NERVE DISORDER INDUCED BY ANTI-CANCER AGENTS” (NAGOYA INDUSTRIAL SCIENCE RESEARCH INSTITUTE, priority 2011, published 2013).

Columns and labels:
[1] = system: paclitaxel-induced peripheral nerve disorder rats; assay: Repeated intraperitoneal administration, hyperalgesia by paclitaxel (von Frey test); format: in vivo, rat
Experimental: With regard to male SD rats of six weeks age used as the experimental animals, their 50% reaction threshold values to the mechanical stimulus (the measuring method will be mentioned later) and body weights were measured and then the following seven groups each comprising eight rats was organized. • Normal control group • Onset control group • Prophylactic administration group with 0.25 mg/kg/day of a test drug • Prophylactic administration group with 0.50 mg/kg/day of a test drug • Therapeutic administration group with 0.25 mg/kg/day of a test drug • Therapeutic administration group with 0.50 mg/kg/day of a test drug • Therapeutic administration group with 30 mg/kg/day of gabapentin (positive control)
Taxol (registered trademark) injection 30 mg (manufactured by Bristol-Myers Squibb) containing 6 mg/mL of paclitaxel was used. To the rats of each of the above groups except the normal control group was intraperitoneally administered paclitaxel diluted to 2 mg/mL with saline in a dose of 2 mg/kg four times every other day whereupon the paclitaxel-induced peripheral nerve disorder rats were prepared. To the normal control group, an equivalent mixture of ethanol and Cremophor EL (registered trademark; manufactured by Sigma; a solvent for Taxisol (registered trademark) injection) diluted with saline to an extent of 3-fold was administered similarly.
To prophylactic administration groups of a test drug, the compound 4 in a dose of 0.25 mg/kg/day or 0.50 mg/kg/day was repeatedly administered intraperitoneally since immediately after initiation of administration of paclitaxel until 13 days thereafter. Meanwhile, to therapeutic administration groups of a test drug and to a therapeutic administration group of gabapentin, the compound 4 in a dose of 0.25 mg/kg/day or 0.50 mg/kg/day or gabapentin in a dose of 30 mg/kg/day, respectively was repeatedly administered intraperitoneally during the period of from 14 days to 42 days after initiation of the administration of paclitaxel.
The seven groups of rats of the above (1) were placed in a transparent acrylic cage with a wire-meshed floor and habituated for about three minutes and the 50% reaction threshold values to the mechanical stimulus of right hind limb were measured after 3, 7, 14, 21, 28, 35 and 42 days from initiation of the administration of paclitaxel. Incidentally, during the period of administration of a test drug, its values were measured after 24 hours from the last administration of a test drug.
The measurement was conducted using von Frey filaments (manufactured by North Coast Medical Inc.) in accordance with the methods of Chaplan, et al. (Journal of Neuroscience Methods, vol. 53, no. 1, pages 55 to 63, 1994) and Dixon, et al. (Annual Review of Pharmacology and Toxicology, vol. 20, pages 441 to 462, 1980). […] The case where the rat escaped at the instance of removing the filament was also called positive. When the positive reaction was noted, stimulus was conducted similarly using a filament of one rank weaker while, when no reaction was noted, stimulus was conducted similarly using a filament of one rank stronger and the point when the reaction changed from negative to positive or from positive to negative was called the first two reactions. […] A 50% reaction threshold value to the mechanical stimulus was measured using the reaction to the six stimuli in total and then (mean value) ± (standard error) for each group was calculated. […]

[2] = system: paclitaxel-induced peripheral nerve disorder rats; assay: Single intraperitoneal administration, hyperalgesia induced by paclitaxel (von Frey test); format: in vivo; settings: Rattus norvegicus, ip, single i.p. dose 0.3 mg/kg, higher of the values after 1 hour and 5 hours, read-out: Recovery rate of 50% reaction threshold value (%)
Experimental: Male SD rats in six weeks age (one group comprised six rats) were used as experimental animals and the paclitaxel-induced peripheral nerve disorder rats were prepared in the same manner as in the above 1.[1](2). The test drug was administered intraperitoneally in a single dose so as to make it 0.3 mg/kg in any of the cases during the period of 18 to 25 days or 20 to 27 days after initiation of administration of paclitaxel.
A von Frey test was conducted in the same manner as in the above 1.[1](4) using the rats mentioned in the above (1) and each 50% reaction threshold value was measured. With regard to the higher 50% reaction threshold value between the 50% reaction threshold values after 1 hour and 5 hours from administration of a test drug, a recovery rate (%) of the 50% reaction threshold value was calculated.
Recovery rate (%) of 50% reaction threshold value={[(50% reaction threshold value after 1 hour or 5 hours from administration of test drug)−(50% reaction threshold value before administration of test drug)]÷[(Normal threshold value)−(50% reaction threshold value before administration of test drug)]}×100

## CCCCCCC/C=C/C(=O)OCC [Compound 4, Trans-2-decenoic acid ethyl ester]
[1]; paclitaxel model, repeated i.p. 0.25 or 0.50 mg/kg/day
  effect of suppressing the hyperalgesia after completion of the repeated administration: still continued
[1]; prophylactic i.p. 0.5 mg/kg/day until 13 days, from 14 days to 28 days after initiation of paclitaxel, male SD rats
  50% reaction threshold values to the mechanical stimulus vs onset control group: significantly high
[1]; therapeutic i.p. 0.25 mg/kg/day (days 14-42), from 21 days to 35 days after paclitaxel
  50% reaction threshold values to the mechanical stimulus vs onset control group: significantly high
[1]; therapeutic i.p. 0.5 mg/kg/day (days 14-42), after 28 days from paclitaxel
  50% reaction threshold values to the mechanical stimulus vs onset control group: significantly high
[2]
  inhibition in vivo at 0.3 mg/kg: 48.5%
